Values quoted from earlier work as cited in US9339471B2, “Long acting dual release product containing carbinoxamine and pseudoephedrine” (E5 PHARMA, LLC, priority 2007, dated 2016).

Details: dependent on urine pH; cited from earlier work

CN[C@@H](C)[C@@H](O)c1ccccc1.Cl (relative stereo) [Pseudoephedrine, [S—(R*,R*)]-α-[1-(methylamino)ethyl]-benzenemethanol hydrochloride]
mean elimination half-life: 4 to 6 h
